Laboratory results published in US20030086868A1, “Actinium-225 complexes and conjugates for radioimmunotherapy” (priority 2002, published 2003).

What was measured:
[1] = In vivo biodistribution in nu/nu mice; conditions: for 225Ac Biodistribution, Blood / 225Ac Biodistribution, Bone / 225Ac Biodistribution, Kidneys / 225Ac Biodistribution, Liver: average; for pattern of distribution: intraperitoneal, approx. 2 μCi, nu/nu mice, period of 5 days
Method: Counting was carried out half an hour after sample preparation.

[2] = in vivo; cited from earlier work
[3] = target: T1, antigen excess (HuM195 is anti-CD33) (Homo sapiens, UniProt P20138); test: Cell-based immunoreactivity study (binding of labeled antibody to antigen excess)
T1 construct: host or cells: unnamed antigen-bearing cells
T1 sequence (P20138 18-364): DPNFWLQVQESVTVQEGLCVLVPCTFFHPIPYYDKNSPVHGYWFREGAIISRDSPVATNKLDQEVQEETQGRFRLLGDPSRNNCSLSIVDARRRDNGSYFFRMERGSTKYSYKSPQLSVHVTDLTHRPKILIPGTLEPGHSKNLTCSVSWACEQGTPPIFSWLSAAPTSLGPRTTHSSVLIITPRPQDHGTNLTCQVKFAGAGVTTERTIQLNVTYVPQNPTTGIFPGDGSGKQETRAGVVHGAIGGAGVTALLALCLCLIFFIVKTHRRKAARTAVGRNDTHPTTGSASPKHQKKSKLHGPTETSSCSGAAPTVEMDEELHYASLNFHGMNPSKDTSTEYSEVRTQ

[4] = system: antigen positive cell line; test: In-vitro cell kill (3H-thymidine incorporation), antigen positive cell line; type: cell-based
[5] = system: antigen negative cell line; test: In-vitro cell kill (3H-thymidine incorporation), antigen negative cell line; type: cell-based
target cells = test: Internalization of isotope into target cells; type: cell-based; conditions: in 5 hours

Row | Compound | 225Ac Biodistribution, Blood ([1]; 1 d) | 225Ac Biodistribution, Blood ([1]; 2 d) | 225Ac Biodistribution, Blood ([1]; 5 d) | 225Ac Biodistribution, Bone ([1]; 1 d) | 225Ac Biodistribution, Bone ([1]; 2 d) | 225Ac Biodistribution, Bone ([1]; 5 d) | 225Ac Biodistribution, Kidneys ([1]; 1 d) | 225Ac Biodistribution, Kidneys ([1]; 2 d) | 225Ac Biodistribution, Kidneys ([1]; 5 d) | 225Ac Biodistribution, Liver ([1]; 1 d) | 225Ac Biodistribution, Liver ([1]; 2 d) | 225Ac Biodistribution, Liver ([1]; 5 d) | pattern of distribution [1] | excretion [2] | liver uptake [2] | immunoreactive fraction [3] | LD50 in a 2-day assay ([4]; 2-day assay, positive cell line) | LD50 in a 5-day assay ([4]; 5-day assay, specific activity of 0.035 Ci/g, 3H-thymidine incorporation) | LD50 in a 2-day assay [5] | isotope internalized in the target cells (target cells)
1 | CC(=O)[O-].CC(=O)[O-].CC(=O)[O-].[225Ac+3] [^225Ac Acetate, reference compound] | 0.1 % dose/g | 0.2 % dose/g | 0.0 % dose/g | 13.3 % dose/g | 12.0 % dose/g | 17.1 % dose/g | 3.8 % dose/g | 3.2 % dose/g | 2.8 % dose/g | 46.6 % dose/g | 43.1 % dose/g | 68.5 % dose/g | held up in the liver and bone but cleared from blood |  |  |  |  |  |  | 
2 | O=P(O)(O)CN(CCN(CP(=O)(O)O)CP(=O)(O)O)CP(=O)(O)O [^225Ac-EDTMP, ethylenediaminetetra-methylenephosphonic acid, metal not drawn] |  |  |  |  |  |  |  |  |  |  |  |  |  | poor | still substantial |  |  |  |  | 
3 | ^225Ac-HuM195-MeO-DOTA | 10.1 % dose/g | 10.2 % dose/g | 4.5 % dose/g | 3.8 % dose/g | 4.1 % dose/g | 5.3 % dose/g | 4.6 % dose/g | 5.2 % dose/g | 4.6 % dose/g | 8.8 % dose/g | 10.0 % dose/g | 20.7 % dose/g | longer blood circulation time and less bone uptake |  |  | ~70% | about 1.4 nCi/ml | ~0.3 nCi/ml | about 28 nCi/ml | more than 50%
